The test system of data set [1] is patients with fresh myocardial infarction. In kind it is in vivo, human (patients). How it is done: V. A preliminary clinical study was conducted on 100 patients with fresh myocardial infarction who had to fulfill the following criteria for admission: typical history of chest pain, with onset of less than six hours duration and having anterior or anteroseptal transmural myocardial infarction evidenced by 12 leads EKG criteria. 50 patients received the usual conventional drugs advocated in the hospital where the study was undertaken (potent analgesic, nitroglycerin, diuretics, lidocain, digitalis) and served as a comparison or control group. The other 50 patients received the conventional drugs and in addition calcium dobesilate which was given as follows: 100 mg/kg of calcium dobesilate by i.v. perfusion in 300 ml glucose, on admission 50-100 mg/kg of calcium dobesilate by i.v. perfusion in 300 ml glucose every hour during the subsequent 3 hours 25 mg/kg of calcium dobesilate by i.v. perfusion in 300 ml glucose every 6 hours until the 3rd-4th day after admission The treatment was then continued, by giving 500-1,000 mg of calcium dobesilate orally thrice daily.

In data set [2] the test system is dogs with experimental myocardial infarction. Description: electrocardiographic tracings in dogs after coronary artery ligation (second study). The following applies: group III treated dogs, 360 min, 100 mg/kg i.v. Type of data set: in vivo, mongrel dogs. Here is the method:
In 7 dogs the coronary artery was occluded and lymphangiography was performed post-mortem 30 minutes after the occlusion (group II). In 6 other dogs the coronary artery was occluded and lymphangiography was performed 360 minutes after coronary artery occlusion (group III). An additional 12 dogs were treated with CLS 2210 (calcium dobesilate) in a single dose of 100 mg/kg by intravenous infusion immediately after coronary artery occlusion. In 6 of these dogs, post-mortem lymphangiography was performed 30 minutes following coronary artery occlusion (group II), and in the other 6 it was performed 360 minutes after occlusion (group III).

The next data set relates to rabbit ear. The following applies: Roskam's method; U.S. Pat. No. 3,509,207; cited from earlier work.
In a further data set the test system is microvessels. The following applies: cited from earlier work.
The mark [3] stands for this setting: compared to controls (FIGS. 1-3).

With `O=S(=O)(O)c1cc(O)ccc1O` [calcium dobesilate, calcium 2,5-dihydroxybenzenesulfonate], the “precordial ST-segment elevation” value in data set [1] (EKG tracings, compared to controls) is “rapid and much greater decrease”. Also, in data set [1] (compared to control group, i.v. then oral, added to conventional drugs), the “consumption of conventional drugs (analgesic, nitroglycerin, diuretic, lidocain and digitalis)” value is reported as “considerably reduced”. Also, the chest pain entry in data set [1] (compared to controls) is reported as “much less”. Also, in data set [1] (setting [3]), the “serum levels of CPK” value was “significant reduction”, the “serum levels of LDH” value is given as “significant reduction” and the “serum levels of SGOT” value is reported as “significant reduction”. Also, the short-term mortality in data set [1] (controls 15%) is 2%. In addition, in data set [1] (controls average 7 days), the “mobilisation of patients (average)” value worked out at 4 days. Moreover, in data set [1] (human, in vivo), the side-effects result is “no side-effects” and the tolerability result is recorded as “well tolerated”. The ST-segment elevation entry in data set [2] is given as “a fall in the ST-segment elevation”. The “mean bleeding time of the rabbit ear” value in the data set with rabbit ear is on record as “reduce”. Also, in the data set on microvessels, the anti-oedema effect entry is “anti-oedema”; the “capillary fragility and permeability” value is given as “reducing”; the viscosity lowering effect result is reported as “viscosity lowering effect”.

The values above are taken from patent US4513007A, “Method for treating heart disease” (priority 1983, dated 1985).
